Data from ChEMBL document CHEMBL1134446, “Polyamine analogue antidiarrheals: a structure-activity study” (J Med Chem, 2001).
“And” between values parts separate entries of the source, which are not always exact repeats. Equal values may be shown once.

Assays:
Assay type in all cases: functional
Rattus norvegicus [1] = experiment: Stool output of rat over the 6-h collection period when a dose of 24.87 mg/kg (57.8 administered
Rattus norvegicus [2] = experiment: Stool output of rat over the 6-h collection period when a dose of 4.97 mg/kg (11.6 uMl) was administered
Rattus norvegicus [3] = experiment: Weight loss of rat over the 6-h experimental period when a dose of 0.03125 mg/kg (0.0726 administered
Rattus norvegicus [4] = experiment: Weight loss of rat over the 6-h experimental period when a dose of 0.0625 mg/kg (0.145 administered
Rattus norvegicus [5] = experiment: Weight loss of rat over the 6-h experimental period when a dose of 0.125 mg/kg (0.29 administered
Rattus norvegicus [6] = experiment: Weight loss of rat over the 6-h experimental period when a dose of 0.25 mg/kg (0.58 administered
Rattus norvegicus [7] = experiment: Weight loss of rat over the 6-h experimental period when a dose of 0.5 mg/kg (1.16 administered
Rattus norvegicus [8] = experiment: Weight loss of rat over the 6-h experimental period when a dose of 0.99 mg/kg (2.3 administered
Rattus norvegicus [9] = experiment: Weight loss of rat over the 6-h experimental period when a dose of 0 mg/kg (0 administered
Rattus norvegicus [10] = experiment: Weight loss of rat over the 6-h experimental period when a dose of 0.0078 mg/kg (0.0181 administered
Rattus norvegicus [11] = experiment: Weight loss of rat over the 6-h experimental period when a dose of 0.0156 mg/kg (0.036 administered
Rattus norvegicus [12] = experiment: Weight loss of rat over the 6-h experimental period when a dose of 24.87 mg/kg (57.8 administered
Rattus norvegicus [13] = experiment: Weight loss of rat over the 6-h experimental period when a dose of 4.97 mg/kg (11.6 administered
Rattus norvegicus [14] = experiment: Percent reduction was determined by using the ratio of mean of treated animal to that of control animal at a dose of 24.87 mg/kg
Rattus norvegicus [15] = experiment: Percent reduction was determined by using the ratio of mean of treated animal to that of control animal at a dose of 4.97 mg/kg
Rattus norvegicus [16] = experiment: Stool output of rat over the 6-h collection period when a dose of 0.0078 mg/kg (0.0181 administered
Rattus norvegicus [17] = experiment: Stool output of rat over the 6-h collection period when a dose of 0.0156 mg/kg (0.036 administered
Rattus norvegicus [18] = experiment: Stool output of rat over the 6-h collection period when a dose of 0.03125 mg/kg (0.0726 administered
Rattus norvegicus [19] = experiment: Stool output of rat over the 6-h collection period when a dose of 0.0625 mg/kg (0.145 administered
Rattus norvegicus [20] = experiment: Stool output of rat over the 6-h collection period when a dose of 0.125 mg/kg (0.29 administered
Rattus norvegicus [21] = experiment: Stool output of rat over the 6-h collection period when a dose of 0.25 mg/kg (0.58 administered
Rattus norvegicus [22] = experiment: Stool output of rat over the 6-h collection period when a dose of 0.5 mg/kg (1.16 administered
Rattus norvegicus [23] = experiment: Stool output of rat over the 6-h collection period when a dose of 0.99 mg/kg (2.3 administered
Rattus norvegicus [24] = experiment: Stool output of rat over the 6-h collection period when a dose of 0 mg/kg (0 administered
Rattus norvegicus [25] = experiment: Percent reduction was determined by using the ratio of mean of treated animal to that of control animal at a dose of 0.5 mg/kg
Rattus norvegicus [26] = experiment: Percent reduction was determined by using the ratio of mean of treated animal to that of control animal at a dose of 0.0078 mg/kg
Rattus norvegicus [27] = experiment: Percent reduction was determined by using the ratio of mean of treated animal to that of control animal at a dose of 0.0156 mg/kg
Rattus norvegicus [28] = experiment: Percent reduction was determined by using the ratio of mean of treated animal to that of control animal at a dose of 0.03125 mg/kg
Rattus norvegicus [29] = experiment: Percent reduction was determined by using the ratio of mean of treated animal to that of control animal at a dose of 0.0625 mg/kg
Rattus norvegicus [30] = experiment: Percent reduction was determined by using the ratio of mean of treated animal to that of control animal at a dose of 0.125 mg/kg
Rattus norvegicus [31] = experiment: Percent reduction was determined by using the ratio of mean of treated animal to that of control animal at a dose of 0.25 mg/kg
Rattus norvegicus [32] = experiment: Percent reduction was determined by using the ratio of mean of treated animal to that of control animal at a dose of 0.99 mg/kg
Rattus norvegicus [33] = experiment: Stool output of rat over the 6-h collection period when a dose of 28.2 mg/kg (57.8 administered
Rattus norvegicus [34] = experiment: Stool output of rat over the 6-h collection period when a dose of 5.7 mg/kg (11.6 administered
Rattus norvegicus [35] = experiment: Weight loss of rat over the 6-h experimental period when a dose of 1.1 mg/kg (2.3 administered
Rattus norvegicus [36] = experiment: Weight loss of rat over the 6-h experimental period when a dose of 28.2 mg/kg (57.8 administered
Rattus norvegicus [37] = experiment: Weight loss of rat over the 6-h experimental period when a dose of 5.7 mg/kg (11.6 administered
Rattus norvegicus [38] = experiment: Percent reduction was determined by using the ratio of mean of treated animal to that of control animal at a dose of 28.2 mg/kg
Rattus norvegicus [39] = experiment: Stool output of rat over the 6-h collection period when a dose of 1.1 mg/kg (2.3 administered

## CCNCCCNC1CCC(NCCCNCC)CC1 (stereo unspecified)
Rattus norvegicus [1]
  Stool output: <0 g (350g of rat weight)-1
Rattus norvegicus [2]
  Stool output: <0 g (350g of rat weight)-1
Rattus norvegicus [3]
  Weight loss: <4.2 g
Rattus norvegicus [4]
  Weight loss: <3.7 g
Rattus norvegicus [5]
  Weight loss: <4.1 g
Rattus norvegicus [6]
  Weight loss: <2.7 g
Rattus norvegicus [7]
  Weight loss: <2.9 g
Rattus norvegicus [8]
  Weight loss: <2.7 g
Rattus norvegicus [9]
  Weight loss: 11.6 g
Rattus norvegicus [10]
  Weight loss: <8.8 g
Rattus norvegicus [11]
  Weight loss: <3.1 g
Rattus norvegicus [12]
  Weight loss: <0.8 g
Rattus norvegicus [13]
  Weight loss: <1.6 g
Rattus norvegicus [14]
  Reduction: 93% and 100%
Rattus norvegicus [15]
  Reduction: 86% and 100%
Rattus norvegicus [16]
  Stool output: >3.6 g (350g of rat weight)-1
Rattus norvegicus [17]
  Stool output: <0.4 g (350g of rat weight)-1
Rattus norvegicus [18]
  Stool output: <0 g (350g of rat weight)-1
Rattus norvegicus [19]
  Stool output: <0 g (350g of rat weight)-1
Rattus norvegicus [20]
  Stool output: <0 g (350g of rat weight)-1
Rattus norvegicus [21]
  Stool output: <0 g (350g of rat weight)-1
Rattus norvegicus [22]
  Stool output: <0 g (350g of rat weight)-1
Rattus norvegicus [23]
  Stool output: <0 g (350g of rat weight)-1
Rattus norvegicus [24]
  Stool output: 4.9 g (350g of rat weight)-1
Rattus norvegicus [25]
  Reduction: 75% and 100%
Rattus norvegicus [26]
  Reduction: 24%
Rattus norvegicus [27]
  Reduction: 73% and 92%
Rattus norvegicus [28]
  Reduction: 64% and 100%
Rattus norvegicus [29]
  Reduction: 68% and 100%
Rattus norvegicus [30]
  Reduction: 65% and 100%
Rattus norvegicus [31]
  Reduction: 77% and 100%
Rattus norvegicus [32]
  Reduction: 77% and 100%

## CC(C)CCNCCCNCCCCNCCCNCCC(C)C
Rattus norvegicus [33]
  Stool output: <0 g (350g of rat weight)-1
Rattus norvegicus [34]
  Stool output: >7.8 g (350g of rat weight)-1
Rattus norvegicus [9]
  Weight loss: 14.6 g
Rattus norvegicus [35]
  Weight loss: >14.2 g
Rattus norvegicus [36]
  Weight loss: <1.6 g
Rattus norvegicus [37]
  Weight loss: >18.3 g
Rattus norvegicus [38]
  Reduction: 89% and 100%
Rattus norvegicus [24]
  Stool output: 4.6 g (350g of rat weight)-1
Rattus norvegicus [39]
  Stool output: >4.9 g (350g of rat weight)-1
